Biological target: T1, FimH proteins (Escherichia coli, UniProt Q1R2J4)
T1 construct: endogenous in cells; host or cells: UPEC strain UTI89 (whole bacteria)
Assay: hemagglutination inhibition (HAI) assay: UPEC UTI89 with guinea pig red blood cells
Type: cell-based, uropathogenic Escherichia coli (UPEC) UTI89
Details: read-out: HAI EC90 (minimum concentration for inhibiting hemagglutination)
Experimental: In the present example, the mannose derivatives A1 to A107 that were prepared in Examples 1 to 12 were analyzed in hemagglutination inhibition (HAI) assays to determine inhibitory effects of the compounds on the function/activity of FimH proteins.
1. Preparation of a guinea pig red blood cell solution: an adult guinea pig was anesthetized with ethyl ether, blood was sampled from the heart, placed in an EDTA blood collection tube, and centrifuged at 2,000 rpm for 5 min, serum was removed, the sample was transferred in a centrifuge tube (15 mL), sterilized PBS was added, the sample was centrifuged at 1,500 rpm for 10 min, a supernatant was removed, the sample was transferred in a centrifuge tube (50 mL), PBS was added, the sample was centrifuged at 1,500 rpm for 10 min and repeatedly washed twice, and red blood cells were slightly aspirated into a new centrifuge tube (50 mL) to obtain a 5% guinea pig red blood cell solution.
2. Preparation of a bacteria solution: a UPEC cell line UTI89 was inoculated on a medium plate and cultured in an incubator at 37° C. overnight. Single colonies were picked and inoculated in an LB medium in a sterilized conical flask, and cultured at 37° C. and 170 r/min overnight. When an OD value at 540 nm was about 0.8 on a microplate reader, the bacterial concentration was about 10^8-10^9 cfu/mL, the bacteria solution was centrifuged at 2,000 rpm for 10 min, a supernatant was removed, and 1 mL of bacteria solution was prepared into 0.1 mL of PBS bacteria solution. […] The bacteria and the medium were uniformly mixed by shaking, and reacted in an incubator at 25° C. for about 20-40 min. When the plate was read, the wells in which complete agglutination occurred were used as 4HAU for the hemagglutination titer of the bacteria. For example, if the endpoint titer of hemagglutination is 1:256, the dilution multiple of the 4HAU antigen is 1:64 (256 divided by 4). Bacteria solutions at corresponding concentrations were prepared according to the experimental results.
3. Activity assay: a compound to be tested or a standard product was placed in a 96-well microtest plate, 50 μL of drug at an initial concentration of 200 μM was placed in the first well, and from the second well, 25 μL of PBS was added to each well to dilute the drug in proportion. The drug and the medium in the first well were mixed, 25 μL of mixed drug solution was placed in the second well, the drug solution was diluted in sequence to the last well, and 25 μL of drug solution was removed. 25 μL of bacteria solution was placed in each well of the culture plate containing the diluted drug, and cultured at 37° C. for 40 min. 25 μL of 5% guinea pig red blood cell suspension was placed in each well, and slightly uniformly mixed with the drug, and the plate was placed at 4° C. for about 1 h. When results were determined, the plate was tilted 60°, and whether the red blood cells flowed like teardrops was observed.
Mannosyl proteins are expressed on the surface of red blood cells in a guinea pig, which can bind to FimH proteins of UTI89 to cause hemagglutination. It can be observed with the naked eyes that the red blood cells form film-like agglutination at the bottom of the well, and loose red dots can be seen in the center. The FimH protein inhibitor competitively binds to FimH proteins to inhibit hemagglutination. It can be observed with the naked eyes that all the red blood cells sink and concentrate at the bottom of the well to form dense dots. The minimum concentration for inhibiting hemagglutination is expressed as an EC90 value of a compound. The final concentration of the compound in the first well is 66700 nM, the concentration in the second well is half that in the first well, the concentration in the third well is half that in the second well, and so on. […] A low EC90 value indicates high activity of a compound.

[2H]C([2H])([2H])Oc1ccc(-n2cc(C#C[C@H]3O[C@H](CO)[C@@H](O)[C@H](O)[C@@]3(O)C#CC3CC3)cn2)cc1 [Compound A90]
EC90: < 0.1 nM

COCCOc1ccc(-n2cc(C#C[C@H]3O[C@H](CO)[C@@H](O)[C@H](O)[C@@]3(O)C#Cc3ccccc3)cn2)cc1 [Compound A102]
EC90: < 0.1 nM

CC#C[C@H]1O[C@H](CO)[C@@H](O)[C@H](O)[C@@]1(O)C#Cc1ccccc1 [Compound A15]
EC90: 520 nM

CCC(C)O[C@H]1O[C@H](CO)[C@@H](O)[C@H](O)[C@@]1(O)C#Cc1cccc(Cl)c1 (stereo partly drawn) [Compound A57]
EC90: 260 nM

OC[C@H]1O[C@H](C#Cc2cnn(C3CCCCC3)c2)[C@](O)(C#CC2CC2)[C@@H](O)[C@@H]1O [Compound A59]
EC90: 4 nM

Cn1cc(C#C[C@H]2O[C@H](CO)[C@@H](O)[C@H](O)[C@@]2(O)C#Cc2ccccc2)cn1 [Compound A34]
EC90: 64 nM

CNC(=O)c1cccc(-c2ccc(O[C@H]3O[C@H](CO)[C@@H](O)[C@H](O)[C@@]3(O)C#Cc3ccccc3)c(C)c2)c1 [Compound A1]
EC90: 8 nM

Cc1nn(C)cc1C#C[C@H]1O[C@H](CO)[C@@H](O)[C@H](O)[C@@]1(O)C#Cc1ccccc1 [Compound A38]
EC90: 260 nM

CCC(C)O[C@H]1O[C@H](CO)[C@@H](O)[C@H](O)[C@@]1(O)C#Cc1ccc(F)cc1 (stereo partly drawn) [Compound A56]
EC90: 520 nM

Source: patent US11964996B2, “2-alkynylmannose derivative and application thereof” (priority 2020, dated 2024)
